The target in one data set is T1, SYK aa1-635 (Homo sapiens, UniProt P43405).
T1 construct: BTK, LYN, SYK aa1-635; purchased ProQinase; host or cells: Sf9 insect cells or E. coli (not specified per kinase)
Put plainly: Radiometric protein kinase assay (33PanQinase Activity Assay), residual activity. Format: biochemical. Particulars: 10 μM (1×10^−05 M) test compound, singlicate. As for the experimental part: (§1) The kinase inhibition profile of compounds of formula (I) was evaluated at Proqinase (http://www.proqinase.conn) by measuring residual activity values at a concentration of 10 μM of the test compound in singlicate in front of the following kinases: BTK, LYN, SYK aa1-635 using the following protocol:
(§2) The compounds were dissolved to 1×10^−03 M stock solutions in 100% DMSO. Subsequently, 100 μl of each stock solution were transferred into wells A3-F12 of a microtiter plate (“master plate”). Wells A1-F2 were filled with 100 μl 100% DMSO as controls. 5×10 μl of the master plate were aliquoted into 5 copy plates, which were stored at −20° Celsius until use. For the testing of each group of up to 8 kinases, one copy plate was used.
(§3) In the process, 90 μl H2O were added to each well of a copy plate. To minimize precipitation, the H2O was added to each well only a few minutes before the transfer of the compound solutions into the assay plates. The plate was shaken thoroughly, resulting in a “compound dilution plate” with a compound concentration of 1×10^−04 M/10% DMSO. This plate was used for the transfer of 5 μl compound solution into the assay plates. The final volume of the assay was 50 μl. All compounds were tested at 1×10^−05 M in singlicate. The final DMSO concentration in the reaction cocktails was 1% in all cases. The compound dilution plates were disposed at the end of each working day.
(§4) A radiometric protein kinase assay (^33PanQinase® Activity Assay) was used for measuring the kinase activity of the corresponding protein kinases. All kinase assays were performed in 96-well FlashPlates™ from Perkin Elmer (Boston, Mass., USA) in a 50 μl reaction volume. The reaction cocktail was pipetted in 4 steps in the following order: • 10 μl of non-radioactive ATP solution (in H2O) • 25 μl of assay buffer/[γ-33P]-ATP mixture • 5 μl of test sample in 10% DMSO • 10 μl of enzyme/substrate mixture
(§5) The protein kinase reaction cocktails were incubated at 30° C. for 60 minutes. The reaction was stopped with 50 μl of 2% (v/v) H3PO4, plates were aspirated and washed two times with 200 μl 0.9% (w/v) NaCl. All assays were performed with a BeckmanCoulter Biomek 2000/SL robotic system. Incorporation of ^33Pi (counting of “cpm”) was determined with a microplate scintillation counter (Microbeta, Wallac).
(§6) All protein kinases provided by ProQinase were expressed in Sf9 insect cells or in E. coli as recombinant GST-fusion proteins or His-tagged proteins. All kinases were produced from human cDNAs and purified by either GSH-affinity chromatography or immobilized metal. Affinity tags were removed from a number of kinases during purification. The purity of the protein kinases was examined by SDS-PAGE/Coomassie staining, the identity was checked by mass spectroscopy.
(§7) For each kinase, the median value of the cpm of six wells of column 1 of each assay plate was defined as “low control” (n=6). This value reflects unspecific binding of radioactivity to the plate in the absence of a protein kinase but in the presence of the substrate. Additionally, for each kinase the median value of the cpm of six wells of column 2 of each assay plate was taken as the “high control”, i.e. full activity in the absence of any inhibitor (n=6). The difference between high and low control of each enzyme was taken as 100% activity.
(§8) As part of the data evaluation the low control of each kinase was subtracted from the high control value as well as from their corresponding “compound values”. The residual activity (in %) for each compound well was calculated by using the following formula: Res. Activity (%)=100×[(signal of compound −low control)/(high control −low control)] Results
(§9) The singlicate residual activity values of the tested compounds at one concentration (1×10^−05 M) in singlicate in the required protein kinase assays are given.

The target of the next data set is T2, LYN (Homo sapiens, UniProt P07948).
T2 construct: purchased ProQinase; host or cells: Sf9 insect cells or E. coli (not specified per kinase)
The description is as above. Format: biochemical. Particulars: 10 μM (1×10^−05 M) test compound, singlicate. How it is done:
as §1, §2, §3, §4, §5, §6, §7, §8, §9

In the next data set the target is T3, BTK (Homo sapiens, UniProt Q06187).
T3 construct: purchased ProQinase; host or cells: Sf9 insect cells or E. coli (not specified per kinase)
The data set is described as above. The class given is biochemical. The note with it: 10 μM (1×10^−05 M) test compound, singlicate. As for the experimental part: as §1, §2, §3, §4, §5, §6, §7, §8, §9

In data set [1] the test system is relapsed/refractory non-Hodgkin's lymphoma and CLL. Particulars: cited from earlier work.

The text below walks through data of patent US9630962B2, “4-amino-6-(2,6-dichlorophenyl)-2-(phenylamino)-pyrido[2,3-d]pyrimidin-7(8H)-one derivatives, synthesis and uses thereof” (INSTITUT QUÍMIC DE SARRIÁ, CETS FUNDACIÓ PRIVADA, priority 2013, dated 2017).

Like-named read-outs stand apart in the source and are kept apart here.

Usually remaining activity stands for the signal under treatment as a percentage of the control signal.

T3 sequence (Q06187 whole entry): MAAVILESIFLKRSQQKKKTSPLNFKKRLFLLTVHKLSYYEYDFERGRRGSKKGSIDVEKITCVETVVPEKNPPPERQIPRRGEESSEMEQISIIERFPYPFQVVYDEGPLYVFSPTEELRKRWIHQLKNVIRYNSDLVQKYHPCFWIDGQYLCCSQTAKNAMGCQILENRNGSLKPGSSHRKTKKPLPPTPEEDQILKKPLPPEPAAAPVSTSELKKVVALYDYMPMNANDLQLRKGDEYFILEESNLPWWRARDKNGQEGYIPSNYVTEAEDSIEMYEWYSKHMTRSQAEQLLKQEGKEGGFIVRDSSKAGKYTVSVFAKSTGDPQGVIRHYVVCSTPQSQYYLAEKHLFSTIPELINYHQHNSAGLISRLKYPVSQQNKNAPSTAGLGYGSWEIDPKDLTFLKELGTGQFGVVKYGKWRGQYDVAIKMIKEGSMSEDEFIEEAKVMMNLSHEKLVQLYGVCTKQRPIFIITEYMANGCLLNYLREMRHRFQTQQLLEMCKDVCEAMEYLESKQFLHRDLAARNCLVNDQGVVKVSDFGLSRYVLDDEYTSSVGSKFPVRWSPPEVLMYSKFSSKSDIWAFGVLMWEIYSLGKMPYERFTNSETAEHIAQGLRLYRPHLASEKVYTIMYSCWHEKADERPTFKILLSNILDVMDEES
T2 sequence (P07948 whole entry): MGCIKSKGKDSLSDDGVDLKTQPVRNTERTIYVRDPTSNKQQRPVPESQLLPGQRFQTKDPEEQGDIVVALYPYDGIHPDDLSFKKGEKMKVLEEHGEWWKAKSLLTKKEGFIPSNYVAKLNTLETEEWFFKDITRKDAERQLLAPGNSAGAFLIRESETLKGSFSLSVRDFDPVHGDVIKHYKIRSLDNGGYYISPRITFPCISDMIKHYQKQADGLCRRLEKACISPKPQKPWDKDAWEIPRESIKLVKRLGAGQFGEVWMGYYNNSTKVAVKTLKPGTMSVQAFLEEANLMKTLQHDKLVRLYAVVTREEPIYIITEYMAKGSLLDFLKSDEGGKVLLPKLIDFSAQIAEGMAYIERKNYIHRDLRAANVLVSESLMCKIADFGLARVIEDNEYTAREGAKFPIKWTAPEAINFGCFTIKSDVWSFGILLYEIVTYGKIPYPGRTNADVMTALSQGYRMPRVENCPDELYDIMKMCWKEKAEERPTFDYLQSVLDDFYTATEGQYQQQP

Regarding `Cn1c(=O)c(-c2c(Cl)cccc2Cl)cc2c(N)nc(Nc3ccc(OCCN4CCOCC4)cc3)nc21` [Example 7, 4-amino-6-(2,6-dichlorophenyl)-8-methyl-2-(4-(2-morpholinoethoxy)-phenylamino)-pyrido[2,3-d]pyrimidin-7(8H)-one], the remaining activity at 10 µM at SYK aa1-635 amounted to 44%; at LYN, 0%; on BTK, 16%.

Take `COc1cc(Nc2ncc(F)c(Nc3ccc4c(n3)N(COP(=O)(O)O)C(=O)C(C)(C)O4)n2)cc(OC)c1OC` [fostamatinib]: the response rate in data set [1] (DLBCL patients) was 22%; in data set [1] (FL patients), 10%; in data set [1] (MCL patients) it was 11%. The “partial response (PR)” value in data set [1] (patients with CLL (6 of 11)) was 55%. In addition, in data set [1] (phase 1/2 study), the dose-limiting toxicity result is “diarrhea, neutropenia, and thrombocytopenia”.

With `Cn1c(=O)c(-c2c(Cl)cccc2Cl)cc2c(N)nc(Nc3ccc(NCCN4CCOCC4)cc3)nc21` [Example 6, 4-amino-6-(2,6-dichlorophenyl)-8-methyl-2-(4-(2-morpholinoethylamino)-phenylamino)-pyrido[2,3-d]pyrimidin-7(8H)-one], the remaining activity at 10 µM on SYK aa1-635 is 31%; at LYN it was 0%; on BTK, 10%.
